Data published in patent publication US10307386B2 (priority 2007, dated 2019).

Columns and labels:
[1] = test system: intracellular cystine (circulating white blood cells); settings: taken regularly; measured in circulating white blood cells; cited from earlier work
[2] = test system: New Zealand white rabbits fed a high-fat diet (HFD); assay: Pilot study: 7-day intraperitoneal cysteamine in rabbits fed a high-fat diet (NAFLD model); assay type: in vivo, rabbit; settings: for mean LDL-cholesterol value: control HFD 272.5 mg/dL; for mean total cholesterol value: control HFD 842 mg/dL; for mean LDH value: control HFD 190 U/L; for increase in LDL-cholesterol compared to baseline values: control HFD about 29-fold; for increase in total cholesterol over baseline value: control HFD approximately 20-fold; for decrease in LDH compared to baseline values: control HFD increased 1.7-fold
Source text: (§1) J. Pathol., 170(3):967-980 (2007). Male New Zealand white rabbits were fed a high-fat diet (HFD) containing 20% corn oil and 1.25% cholesterol in order to induce clinical and histological features characteristic of NAFLD and non-alcoholic steatohepatitis (NASH).
Endpoints included daily standard clinical observations, quantitative daily food consumption, body weights on Study Day (SD) −1, 2, 5, and 8 (day of necropsy), and blood samples collected on SD-1 and SD8 for the evaluation of selected clinical chemistries (alanine aminotransferase (ALT), aspartate aminotransferase (AST), amylase, lipase, total cholesterol, triglycerides, lactate dehydrogenase (LDH), high density lipoprotein cholesterol (HDL-cholesterol), and low density lipoprotein cholesterol (LDL-cholesterol)) and a full hematology panel. Animals were sacrificed on SD8.

leukocyte cystine = settings: cited from earlier work
[3] = test system: New Zealand white rabbits fed a high fat diet (HFD); assay: 8-week study: cysteamine in drinking water in rabbits fed a high-fat diet (NAFLD/NASH model); assay type: in vivo; settings: for mean AST value: control HFD 117.1 U/L
Source text: as §1
The study design included five groups of eight rabbits.
Observations during the study included twice weekly body weights, daily food and water consumption, and daily clinical observations. Blood samples were collected prior to the start of the study, and on weeks 2, 6, and 8 for a full panel of hematology parameters and a selected panel of serum chemistries, including ALT, AST, amylase, lipase, total cholesterol, triglycerides, LDH, HDL-cholesterol, and LDL-cholesterol.

[4] = test system: obese individuals with NASH; settings: treated for 4-12 weeks; no reported change in body mass index; cited from earlier work
[5] = test system: obese children who had steatosis; settings: vitamin E 400-1000 IU/day for 4-10 months, cited from earlier work
[6] = delivery of cysteamine to the small intestine
[7] = week 8, 250 mg/kg/day in drinking water

Molecule: NCCS [cysteamine]
- depletion of intracellular cystine [1]: up to 90%
- LDH as % of the control HFD values on SD8 ([2]; 75 mg/kg/day IP Q8H): 33%
- LDH as % of the control HFD values on SD8 ([2]; 250 mg/kg/day IP Q8H): 59%
- LDL-cholesterol: % less of an increase than the HFD controls ([2]; SD8, 75 mg/kg/day IP Q8H): 23%
- total cholesterol: % less of an increase than the HFD controls ([2]; SD8, 75 mg/kg/day IP Q8H): 23%
- mean LDL-cholesterol value ([2]; SD8, 75 mg/kg/day IP Q8H): 210 mg/dL
- mean total cholesterol value ([2]; SD8, 75 mg/kg/day IP Q8H): 652 mg/dL
- mean LDH value ([2]; SD8, 75 mg/kg/day IP Q8H): 128 U/L
- increase in LDL-cholesterol compared to baseline values ([2]; SD8, 75 mg/kg/day IP Q8H): about 12 fold
- increase in total cholesterol over baseline value ([2]; SD8, 75 mg/kg/day IP Q8H): ~12 fold
- decrease in LDH compared to baseline values ([2]; SD8, 75 mg/kg/day IP Q8H): 1.2 fold
- LDL-cholesterol: % less of an increase than the HFD controls ([2]; SD8, 250 mg/kg/day IP Q8H): 45%
- decrease in mean AST value vs control HFD group ([2]; SD8, 250 mg/kg/day IP Q8H): 1.9 fold
- mean AST as % of the control HFD value ([2]; SD8, 250 mg/kg/day IP Q8H): 47%
- total cholesterol: % less of an increase than the HFD control values ([2]; SD8, 250 mg/kg/day IP Q8H): 59%
- mean LDL-cholesterol value ([2]; SD8, 250 mg/kg/day IP Q8H): 150.5 mg/dL
- mean total cholesterol value ([2]; SD8, 250 mg/kg/day IP Q8H): 347 mg/dL
- mean LDH value ([2]; SD8, 250 mg/kg/day IP Q8H): 77.5 U/L
- increase in LDL-cholesterol compared to baseline values ([2]; SD8, 250 mg/kg/day IP Q8H): about 14 fold
- increase in total cholesterol over baseline value ([2]; SD8, 250 mg/kg/day IP Q8H): ~7.5 fold
- mean AST value ([2]; SD8, 250 mg/kg/day IP Q8H, control HFD group 19.0 U/L): 10.0 U/L
- decrease in LDH compared to baseline values ([2]; SD8, 250 mg/kg/day IP Q8H): 3.1 fold
- time to observed decrease in leukocyte cystine (leukocyte cystine; delivery into the small intestine): within an hour
- AUC (leukocyte cystine; [6]): increases
- Cmax (leukocyte cystine; [6]): increases
- body weights ([3]; cysteamine treated animals vs control HFD animals): parallel those of the control HFD animals
- animals that died on study or were sacrificed moribund ([3]; rabbit, in vivo, 75 mg/kg/day): Three
- animals sacrificed moribund ([3]; rabbit, in vivo, 250 mg/kg/day): One
- AST levels reduced compared to the HFD diet control animals ([3]; summary of both rabbit studies): 1.6- to 1.9 fold
- reductions of AST compared to the HFD diet control animals ([3]; summary of both rabbit studies): 37 to 47%
- mean AST value ([3]; week 8, 25 mg/kg/day in drinking water): 62.5 U/L
- increase in HDL-cholesterol over the HFD control mean value [3, 7]: 1.6 fold
- increase in HDL-cholesterol over the control standard diet value [3, 7]: 3.7 fold
- mean HDL-cholesterol value ([3]; week 8, 250 mg/kg/day in drinking water, HFD control 36.9, standard diet 15.7 mg/dL): 58.3 mg/dL
- mean LDH value ([3]; week 8, 250 mg/kg/day in drinking water, HFD control 375 U/L, standard diet control 125.6 U/L): 140 U/L
- mean AST value [3, 7]: 75.7 U/L
- change in LDH values compared to the Group 2 HFD controls ([3]; week 8, all three dose levels (25, 75, 250 mg/kg/day) in drinking water): decrease in LDH values at all three dose levels

Molecule: CC(=O)N[C@@H](CS)C(=O)O [N-acetylcysteine]
- aminotransferase levels and gamma-GT [4]: improvement

Molecule: vitamin E
- mean AST levels after treatment ([5]; decreased from 104±61 IU/L, P<0.002): 33±11 IU/L
- mean ALT levels after treatment ([5]; decreased from 175±106 IU/L, P<0.01): 40±26 IU/L
